Results: ChEMBL document CHEMBL4385645, “Broad-spectrum antifungal activity of spirooxindolo-pyrrolidine tethered indole/imidazole hybrid heterocycles against fungal pathogens” (Bioorg Med Chem Lett, 2019)
Converted amounts (≈) assume the structure as drawn. The source made the active and inactive calls. The rule behind the calls is not given here.

Tests used:
Candida albicans [1] = assay: Antifungal activity against Candida albicans assessed as reduction in fungal growth incubated for 24 hrs by broth microdilution method; format: functional
Candida albicans [2] = assay: Antifungal activity against Candida albicans NR-29434 assessed as reduction in fungal growth incubated for 24 hrs by broth microdilution method; format: functional; conditions: NR-29434, 24 h
Candida albicans [3] = assay: Antifungal activity against Candida albicans NR-29449 assessed as reduction in fungal growth incubated for 24 hrs by broth microdilution method; format: functional; conditions: NR-29449, 24 h
Candida albicans [4] = assay: Antifungal activity against Candida albicans NR-29435 assessed as reduction in fungal growth incubated for 24 hrs by broth microdilution method; format: functional; conditions: NR-29435, 24 h
Candida albicans [5] = assay: Antifungal activity against Candida albicans NR-29448 assessed as reduction in fungal growth incubated for 24 hrs by broth microdilution method; format: functional; conditions: NR-29448, 24 h
Candida albicans [6] = assay: Antifungal activity against Candida albicans NR-29437 assessed as reduction in fungal growth incubated for 24 hrs by broth microdilution method; format: functional; conditions: NR-29437, 24 h
Candida albicans [7] = assay: Antifungal activity against Candida albicans NR-29446 assessed as reduction in fungal growth incubated for 24 hrs by broth microdilution method; format: functional; conditions: NR-29446, 24 h
Candida albicans [8] = assay: Antifungal activity against Candida albicans NR5-29453 assessed as reduction in fungal growth incubated for 24 hrs by broth microdilution method; format: functional; conditions: NR5-29453, 24 h
Candida albicans [9] = assay: Antifungal activity against Candida albicans NR-29438 assessed as reduction in fungal growth incubated for 24 hrs by broth microdilution method; format: functional; conditions: NR-29438, 24 h
Candida albicans [10] = assay: Antifungal activity against Candida albicans NR-29367 assessed as reduction in fungal growth incubated for 24 hrs by broth microdilution method; format: functional; conditions: NR-29367, 24 h
Candida albicans [11] = assay: Antifungal activity against Candida albicans NR-29439 assessed as reduction in fungal growth incubated for 24 hrs by broth microdilution method; format: functional; conditions: NR-29439, 24 h
Candida albicans [12] = assay: Antifungal activity against Candida albicans NR-29440 assessed as reduction in fungal growth incubated for 24 hrs by broth microdilution method; format: functional; conditions: NR-29440, 24 h
Candida albicans [13] = assay: Antifungal activity against Candida albicans NR-29441 assessed as reduction in fungal growth incubated for 24 hrs by broth microdilution method; format: functional; conditions: NR-29441, 24 h
Candida albicans [14] = assay: Antifungal activity against Candida albicans NR-29442 assessed as reduction in fungal growth incubated for 24 hrs by broth microdilution method; format: functional; conditions: NR-29442, 24 h
Candida albicans [15] = assay: Antifungal activity against Candida albicans NR-29444 assessed as reduction in fungal growth incubated for 24 hrs by broth microdilution method; format: functional; conditions: NR-29444, 24 h
Candida albicans [16] = assay: Antifungal activity against Candida albicans ATCC 10231 assessed as reduction in fungal growth incubated for 24 hrs by broth microdilution method; format: functional; conditions: ATCC 10231, 24 h
Cryptococcus neoformans [17] = assay: Antifungal activity against Cryptococcus neoformans NR-41291 assessed as reduction in fungal growth incubated for 24 hrs by broth microdilution method; format: functional; conditions: NR-41291, 24 h
Cryptococcus neoformans [18] = assay: Antifungal activity against Cryptococcus neoformans NR-41292 assessed as reduction in fungal growth incubated for 24 hrs by broth microdilution method; format: functional; conditions: NR-41292, 24 h
Cryptococcus neoformans [19] = assay: Antifungal activity against Cryptococcus neoformans NR-41296 assessed as reduction in fungal growth incubated for 24 hrs by broth microdilution method; format: functional; conditions: NR-41296, 24 h
Cryptococcus neoformans [20] = assay: Antifungal activity against Cryptococcus neoformans NR-41295 assessed as reduction in fungal growth incubated for 24 hrs by broth microdilution method; format: functional; conditions: NR-41295, 24 h
Cryptococcus neoformans [21] = assay: Antifungal activity against Cryptococcus neoformans NR-41294 assessed as reduction in fungal growth incubated for 24 hrs by broth microdilution method; format: functional; conditions: NR-41294, 24 h
Cryptococcus neoformans [22] = assay: Antifungal activity against Cryptococcus neoformans NR-41297 assessed as reduction in fungal growth incubated for 24 hrs by broth microdilution method; format: functional; conditions: NR-41297, 24 h
Cryptococcus neoformans [23] = assay: Antifungal activity against Cryptococcus neoformans NR-41298 assessed as reduction in fungal growth incubated for 24 hrs by broth microdilution method; format: functional; conditions: NR-41298, 24 h
Cryptococcus neoformans [24] = assay: Antifungal activity against Cryptococcus neoformans NR-41299 assessed as reduction in fungal growth incubated for 24 hrs by broth microdilution method; format: functional; conditions: NR-41299, 24 h
Candida albicans [25] = assay: Antifungal activity against Candida albicans NR-29366 assessed as reduction in fungal growth incubated for 24 hrs by broth microdilution method; format: functional, organism-based
Candida albicans [26] = assay: Antifungal activity against Candida albicans assessed as reduction in hyphae formation and attachment at 32 to 64 ug/ml incubated for 12 hrs by crystal violet dye-based microscopic analysis; format: functional; set-up: scale not given: the % may be the effect or the level left
Candida albicans [27] = assay: Inhibition of biofilm formation in Candida albicans assessed as reduction in metabolic activity at 32 and 64 ug/ml incubated for 48 hrs by MTS assay; format: functional
HCT-116 = assay: Cytotoxicity against human HCT116 cells assessed as reduction in cell viability at 2 to 128 ug/ml incubated for 24 hrs by MTS assay; format: cell-based; conditions: hct-116, 24 h

O=C1Nc2ccccc2[C@@]12N[C@H](Cc1c[nH]cn1)[C@@H]([N+](=O)[O-])[C@@H]2c1ccc(Br)cc1
MIC (Candida albicans [1]): 16 µg/mL (≈ 34.2 µM)

O=C1Nc2ccccc2[C@@]12N[C@H](Cc1c[nH]cn1)[C@@H]([N+](=O)[O-])[C@@H]2c1ccccc1
MIC (Candida albicans [1]): 16 µg/mL (≈ 41.1 µM)

O=C1Nc2ccc(OC(F)(F)F)cc2[C@@]12N[C@H](Cc1c[nH]c3ccccc13)[C@@H]([N+](=O)[O-])[C@@H]2c1ccc(Cl)cc1
MIC (Candida albicans [1]): 16 µg/mL (≈ 28.7 µM)

O=C1Nc2ccccc2[C@@]12N[C@H](Cc1c[nH]c3ccccc13)[C@@H]([N+](=O)[O-])[C@@H]2c1cccc([N+](=O)[O-])c1
MIC (Candida albicans [1]): 8 µg/mL (≈ 16.5 µM)

COc1ccc([C@H]2[C@H]([N+](=O)[O-])[C@@H](Cc3c[nH]c4ccccc34)N[C@]23C(=O)Nc2ccccc23)cc1
MIC (Candida albicans [1]): 16 µg/mL (≈ 34.2 µM)

O=C1Nc2ccc(OC(F)(F)F)cc2[C@@]12N[C@H](Cc1c[nH]c3ccccc13)[C@@H]([N+](=O)[O-])[C@@H]2c1cccc([N+](=O)[O-])c1
MIC (Candida albicans [1]): 16 µg/mL (≈ 28.2 µM)

Cc1ccc([C@H]2[C@H]([N+](=O)[O-])[C@@H](Cc3c[nH]cn3)N[C@]23C(=O)Nc2ccc(OC(F)(F)F)cc23)cc1
MIC (Candida albicans [1]): 16 µg/mL (≈ 32.8 µM)

O=C1Nc2ccccc2[C@@]12N[C@H](Cc1c[nH]cn1)[C@@H]([N+](=O)[O-])[C@@H]2c1cccc([N+](=O)[O-])c1
MIC (Candida albicans [1]): 16 µg/mL (≈ 36.8 µM)

O=C1Nc2ccc(OC(F)(F)F)cc2[C@@]12N[C@H](Cc1c[nH]cn1)[C@@H]([N+](=O)[O-])[C@@H]2c1cccc([N+](=O)[O-])c1
MIC (Candida albicans [1]): 32 µg/mL (≈ 61.7 µM)

COc1ccc([C@H]2[C@H]([N+](=O)[O-])[C@@H](Cc3c[nH]cn3)N[C@]23C(=O)Nc2ccc(OC(F)(F)F)cc23)cc1
MIC (Candida albicans [1]): 32 µg/mL (≈ 63.6 µM)

O=C1Nc2ccccc2[C@@]12N[C@H](Cc1c[nH]cn1)[C@@H]([N+](=O)[O-])[C@@H]2c1ccccc1Cl
MIC (Candida albicans [1]): 8 µg/mL (≈ 18.9 µM)

O=C1Nc2ccccc2[C@@]12N[C@H](Cc1c[nH]c3ccccc13)[C@@H]([N+](=O)[O-])[C@@H]2c1ccc(Cl)cc1
MIC (Candida albicans [1]): 16 µg/mL (≈ 33.8 µM)

O=C1Nc2ccc(OC(F)(F)F)cc2[C@@]12N[C@H](Cc1c[nH]cn1)[C@@H]([N+](=O)[O-])[C@@H]2c1ccccc1
MIC (Candida albicans [1]): 32 µg/mL (≈ 67.6 µM)

O=C1Nc2ccc(OC(F)(F)F)cc2[C@@]12N[C@H](Cc1c[nH]c3ccccc13)[C@@H]([N+](=O)[O-])[C@@H]2c1ccccc1Cl
MIC (Candida albicans [1]): 16 µg/mL (≈ 28.7 µM)

Cc1ccc([C@H]2[C@H]([N+](=O)[O-])[C@@H](Cc3c[nH]cn3)N[C@]23C(=O)Nc2ccccc23)cc1
MIC (Candida albicans [1]): 64 µg/mL (≈ 159 µM)

O=C1Nc2ccc(OC(F)(F)F)cc2[C@@]12N[C@H](Cc1c[nH]c3ccccc13)[C@@H]([N+](=O)[O-])[C@@H]2c1ccccc1
MIC (Candida albicans [1]): 8 µg/mL (≈ 15.3 µM)

O=C1Nc2ccc(OC(F)(F)F)cc2[C@@]12N[C@H](Cc1c[nH]cn1)[C@@H]([N+](=O)[O-])[C@@H]2c1ccc(Br)cc1
MIC (Candida albicans [1]): 8 µg/mL (≈ 14.5 µM)

Cc1ccc([C@H]2[C@H]([N+](=O)[O-])[C@@H](Cc3c[nH]c4ccccc34)N[C@]23C(=O)Nc2ccccc23)cc1
MIC (Candida albicans [1]): 128 µg/mL (≈ 283 µM)

O=C1Nc2ccccc2[C@@]12N[C@H](Cc1c[nH]cn1)[C@@H]([N+](=O)[O-])[C@@H]2c1ccc(Cl)cc1
MIC (Candida albicans [1]): 8 µg/mL (≈ 18.9 µM)

O=C1Nc2ccccc2[C@@]12N[C@H](Cc1c[nH]c3ccccc13)[C@@H]([N+](=O)[O-])[C@@H]2c1ccccc1Cl
MIC (Candida albicans [1]): 32 µg/mL (≈ 67.7 µM)

O=C1Nc2ccc(OC(F)(F)F)cc2[C@@]12N[C@H](Cc1c[nH]c3ccccc13)[C@@H]([N+](=O)[O-])[C@@H]2c1ccc(Br)cc1
MIC (Candida albicans [1]): 8 µg/mL (≈ 13.3 µM)

O=C1Nc2ccccc2[C@@]12N[C@H](Cc1c[nH]c3ccccc13)[C@@H]([N+](=O)[O-])[C@@H]2c1ccc(Br)cc1
MIC (Candida albicans [1]): 64 µg/mL (≈ 124 µM)

O=C1Nc2ccccc2[C@@]12N[C@H](Cc1c[nH]c3ccccc13)[C@@H]([N+](=O)[O-])[C@@H]2c1ccccc1
MIC (Candida albicans [1]): 64 µg/mL (≈ 146 µM)

O=C1Nc2ccc(OC(F)(F)F)cc2[C@@]12N[C@H](Cc1c[nH]cn1)[C@@H]([N+](=O)[O-])[C@@H]2c1ccccc1Cl
MIC (Candida albicans [1]): 4 µg/mL (≈ 7.88 µM)
MIC (Candida albicans [2]): 16 µg/mL (≈ 31.5 µM)
MIC (Candida albicans [3]): 8 µg/mL (≈ 15.8 µM)
MIC (Candida albicans [4]): 8 µg/mL (≈ 15.8 µM)
MIC (Candida albicans [5]): 4 µg/mL (≈ 7.88 µM)
MIC (Candida albicans [6]): 16 µg/mL (≈ 31.5 µM)
MIC (Candida albicans [7]): 4 µg/mL (≈ 7.88 µM)
MIC (Candida albicans [8]): 16 µg/mL (≈ 31.5 µM)
MIC (Candida albicans [9]): 16 µg/mL (≈ 31.5 µM)
MIC (Candida albicans [10]): 16 µg/mL (≈ 31.5 µM)
MIC (Candida albicans [11]): 8 µg/mL (≈ 15.8 µM)
MIC (Candida albicans [12]): 16 µg/mL (≈ 31.5 µM)
MIC (Candida albicans [13]): 8 µg/mL (≈ 15.8 µM)
MIC (Candida albicans [14]): 8 µg/mL (≈ 15.8 µM)
MIC (Candida albicans [15]): 16 µg/mL (≈ 31.5 µM)
MIC (Candida albicans [16]): 8 µg/mL (≈ 15.8 µM)
MIC (Cryptococcus neoformans [17]): 16 µg/mL (≈ 31.5 µM)
MIC (Cryptococcus neoformans [18]): 16 µg/mL (≈ 31.5 µM)
MIC (Cryptococcus neoformans [19]): 16 µg/mL (≈ 31.5 µM)
MIC (Cryptococcus neoformans [20]): 16 µg/mL (≈ 31.5 µM)
MIC (Cryptococcus neoformans [21]): 4 µg/mL (≈ 7.88 µM)
MIC (Cryptococcus neoformans [22]): 16 µg/mL (≈ 31.5 µM)
MIC (Cryptococcus neoformans [23]): 8 µg/mL (≈ 15.8 µM)
MIC (Cryptococcus neoformans [24]): 16 µg/mL (≈ 31.5 µM)
inhibition (Candida albicans [25]): Active
Activity (Candida albicans [26]): 30 - 40%
inhibition (INH) (Candida albicans [27]): <=25%
Activity (HCT-116): Non-Toxic

O=C1Nc2ccc(OC(F)(F)F)cc2[C@@]12N[C@H](Cc1c[nH]cn1)[C@@H]([N+](=O)[O-])[C@@H]2c1ccc(Cl)cc1
MIC (Candida albicans [1]): 8 µg/mL (≈ 15.8 µM)

COc1ccc([C@H]2[C@H]([N+](=O)[O-])[C@@H](Cc3c[nH]c4ccccc34)N[C@]23C(=O)Nc2ccc(OC(F)(F)F)cc23)cc1
MIC (Candida albicans [1]): 16 µg/mL (≈ 29 µM)

Cc1ccc([C@H]2[C@H]([N+](=O)[O-])[C@@H](Cc3c[nH]c4ccccc34)N[C@]23C(=O)Nc2ccc(OC(F)(F)F)cc23)cc1
MIC (Candida albicans [1]): 32 µg/mL (≈ 59.6 µM)

COc1ccc([C@H]2[C@H]([N+](=O)[O-])[C@@H](Cc3c[nH]cn3)N[C@]23C(=O)Nc2ccccc23)cc1
MIC (Candida albicans [1]): 32 µg/mL (≈ 76.3 µM)
